Source: paper PMC7111628 (Antiviral Research, 2020)
Where two headings read alike, the source gives them in different places.

Key:
[1] = MTT cytotoxicity assay in Hep-2 cells; type: cell-based; conditions: human, CC50, Hep-2 cells, MTT assay, concentration required to reduce cell viability by 50%
[2] = MTT cytotoxicity assay in HeLa cells; type: cell-based; conditions: human, CC50, HeLa cells, MTT assay, concentration required to reduce cell viability by 50%
[3] = system: HSV-1 (F strain); assay: Murine intranasal model of HSV pneumonia and encephalitis; type: in vivo, BALB/c mice; conditions: for survival by day 14 post infection: placebo 20%
[4] = system: HSV-1 (F strain); assay: CPE inhibition assay, HSV-1; conditions: for IC50: read-out: HSV-1 IC50
[5] = system: HSV-2 (333 strain); assay: CPE inhibition assay, HSV-2; conditions: for IC50: read-out: HSV-2 IC50
[6] = system: HSV-1; conditions: Vero cells; ref Lyu et al., 2005; cited from earlier work
[7] = system: Vero cells; assay: MTT cytotoxicity assay in Vero cells; type: cell-based; conditions: 50 to 400 μM, 24 h incubation
[8] = system: Hep-2 cells; assay: MTT cytotoxicity assay in Hep-2 cells; type: cell-based; conditions: 50 to 400 μM, MTT, 24 h incubation
[9] = system: HeLa cells; assay: MTT cytotoxicity assay in HeLa cells; type: cell-based; conditions: 50 to 400 μM, MTT, 24 h incubation
[10] = biological target: T1, HSV-1 gD protein (Human herpesvirus 1, UniProt Q69091); assay: Surface plasmon resonance; type: binding, Herpes simplex virus type 1
T1 sequence (Q69091 26-394): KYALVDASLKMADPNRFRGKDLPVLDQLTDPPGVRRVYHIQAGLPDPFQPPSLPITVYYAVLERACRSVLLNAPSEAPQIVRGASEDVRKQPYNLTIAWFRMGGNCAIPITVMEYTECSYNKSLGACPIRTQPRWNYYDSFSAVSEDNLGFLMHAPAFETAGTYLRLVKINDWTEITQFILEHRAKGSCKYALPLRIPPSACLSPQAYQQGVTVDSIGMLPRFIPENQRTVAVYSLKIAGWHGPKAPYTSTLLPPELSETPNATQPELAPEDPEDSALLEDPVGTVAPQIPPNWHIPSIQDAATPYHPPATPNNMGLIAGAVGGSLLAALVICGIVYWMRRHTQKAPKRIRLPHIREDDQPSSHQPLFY

[11] = system: phosphorylated EGFR; assay: Western blot of phosphorylated EGFR in HSV-2 infected cells; type: cell-based; conditions: HSV-2 (MOI = 1.0) infected cells, virus control about 2.4
[12] = system: phosphorylated PI3K; assay: Western blot of phosphorylated PI3K in HSV-2 infected cells; type: cell-based; conditions: HSV-2 (MOI = 1.0) infected cells, virus control about 1.9
[13] = system: phosphorylated Akt; assay: Western blot of phosphorylated Akt in HSV-2 infected cells; type: cell-based; conditions: HSV-2 (MOI = 1.0) infected cells, virus control about 12.1
[14] = system: HSV-1 (F strain); assay: Virus yield in culture media by plaque assay, HSV-1; type: cell-based, Herpes simplex virus type 1; conditions: Vero cells; concentration >1.25 μM; 24 h p.i.; p < 0.05
[15] = system: HSV-2 (333 strain); assay: Virus yield in culture media by plaque assay, HSV-2; type: cell-based, Herpes simplex virus type 2; conditions: Vero cells; concentration >1.25 μM; 24 h p.i.; p < 0.05
[16] = system: HSV-1; assay: Plaque reduction assay, HSV-1; type: cell-based, Herpes simplex virus type 1; conditions: pretreatment of HSV with 1.25-20 μM; Vero cells
[17] = system: HSV-2; assay: Plaque reduction assay, HSV-2; type: cell-based, Herpes simplex virus type 2; conditions: pretreatment of HSV with 1.25-20 μM; Vero cells
[18] = system: HSV-2; assay: Cell fusion inhibition assay; type: cell-based, Herpes simplex virus type 2; conditions: 30, 15 μM during 5-7 h p.i.; HSV-2 (MOI = 3.0) infected Vero cells
[19] = system: gD protein; assay: Western blot of virus gD expression during 5-7 h p.i.; type: cell-based, Herpes simplex virus type 2; conditions: treatment during 5-7 h p.i.
[20] = biological target: T1, HSV-1 gD protein; assay: DARTS assay, gD; type: binding, Herpes simplex virus type 1; conditions: 60 μM; pronase 3 μg/ml; HSV-1 infected Vero cell lysates
[21] = system: gB, gC, and gH/gL proteins; assay: DARTS assay, other virus surface glycoproteins; type: binding, Herpes simplex virus type 1; conditions: 60 μM; HSV-1 infected Vero cell lysates
[22] = system: HVEM and nectin-1; assay: DARTS assay, cellular surface receptors of HSV-1; type: binding; conditions: 60 μM; HSV-1 infected Vero cell lysates
[23] = biological target: T1, HSV-1 gD protein; assay: HSV-1 gD binding to Vero cells, cell ELISA; type: cell-based, Herpes simplex virus type 1
[24] = system: EGFR, PI3K and Akt proteins; assay: Western blot of total EGFR, PI3K and Akt in HSV-2 infected Vero cells; type: cell-based; conditions: 2.5, 5, 10, 20 μM for 2 h
[25] = system: EGFR/PI3K/Akt pathway; assay: Western blot of phosphorylated EGFR, PI3K and Akt in non-infected Vero cells; type: cell-based; conditions: 2.5, 5, 10, 20 μM for 2 h
[26] = system: EGFR/PI3K/Akt pathway; type: cell-based; conditions: 5, 10, 20 μM; Vero cells treated with HSV-1 gD protein (2 μg/ml); vs gD treated control, p < 0.05
[27] = system: HSV-1 gD mRNA; assay: Real-time RT-PCR of gD mRNA, HSV-1 infected Vero cells; type: cell-based, Herpes simplex virus type 1; conditions: 5, 10, 20 μM; HSV-1 (MOI = 1.0) infected Vero cells, 8 h; p < 0.05
[28] = system: HSV-2 gD mRNA; assay: Real-time RT-PCR of gD mRNA, HSV-2 infected Vero cells; type: cell-based, Herpes simplex virus type 2; conditions: 5, 10, 20 μM; HSV-2 (MOI = 1.0) infected Vero cells, 8 h; p < 0.05
[29] = system: HIV reverse transcriptase; conditions: ref Pasetto et al., 2014; cited from earlier work
[30] = system: SARS-CoV helicase protein; conditions: cited from earlier work
[31] = system: HSV-1; assay: Time-of-addition assay, HSV-1; conditions: Vero cells, 24 h p.i.
[32] = system: HSV-2; assay: Time-of-addition assay, HSV-2; conditions: Vero cells, 24 h p.i.
[33] = system: HSV-1 (F strain); assay: Indirect immunofluorescence assay of ICP27 in HSV-1 infected Vero cells; conditions: pretreatment of virus with 10 μM before infection
[34] = 10 mg·kg-1 intraperitoneal, day 4 p.i.
[35] = 20 μM for 1 h before infection, p < 0.01

SMILES: Nc1nc2c(ncn2COCCO)c(=O)[nH]1 [Acyclovir]
- CC50 at 24 h [1]: 898 ± 72.6 µM
- CC50 at 24 h [2]: 830 ± 40 µM
- survival by day 14 post infection ([3]; 10 mg·kg-1 intraperitoneal once daily for five days): 90%
- virus titers in lungs [3, 34]: significant reduction of virus titers
- virus titers in spinal cord [3, 34]: significant reduction of virus titers
- HSV-1 SI (CC50/IC50) ([4]; HeLa cells): 75.5
- HSV-1 SI (CC50/IC50) ([4]; Hep-2 cells): 46.5
- IC50 ([4]; Human alphaherpesvirus 1, HEp-2, 24 h): 19.3 ± 2.2 µM
- IC50 ([4]; Human alphaherpesvirus 1, HeLa, 24 h): 11 ± 1.2 µM
- IC50 ([4]; Human alphaherpesvirus 1, Vero, 24 h): 7.4 ± 0.6 µM
- HSV-1 SI (CC50/IC50) ([4]; Vero cells): 131.8
- HSV-2 SI (CC50/IC50) ([5]; HeLa cells): 37.9
- HSV-2 SI (CC50/IC50) ([5]; Hep-2 cells): 31.5
- IC50 ([5]; Human alphaherpesvirus 2, HEp-2, 24 h): 28.5 ± 4.3 µM
- IC50 ([5]; Human alphaherpesvirus 2, HeLa, 24 h): 21.9 ± 3.2 µM
- IC50 ([5]; Human alphaherpesvirus 2, Vero, 24 h): 11.6 ± 2.5 µM
- HSV-2 SI (CC50/IC50) ([5]; Vero cells): 84.1

SMILES: O=c1c(O)c(-c2ccc(O)c(O)c2)oc2cc(O)cc(O)c12 [quercetinin, reference compound]
- inhibitory effects against HSV-1 [6]: moderate inhibitory effects

SMILES: O=c1c(O)c(-c2cc(O)c(O)c(O)c2)oc2cc(O)cc(O)c12 [Myricetin, 3,5,7-trihydroxy-2-(3,4,5-trihydroxyphenyl)-4-benzopyrone]
- cytotoxicity [7]: no significant cytotoxicity
- CC50 at 24 h [1]: ~965 µM
- cytotoxicity [8]: no significant cytotoxicity
- CC50 at 24 h [2]: ~1150 µM
- cytotoxicity [9]: no significant cytotoxicity
- Kd [10]: ~0.0609 µM
- level of phosphorylated EGFR ([11]; 10 μM for 2 h): about 1.4 fold of normal control group
- level of phosphorylated EGFR ([11]; 20 μM for 2 h): ~0.8 fold of normal control group
- level of phosphorylated PI3K ([12]; 5 μM for 2 h): about 1.4 fold of normal control group
- level of phosphorylated PI3K ([12]; 10 μM for 2 h): about 1.4 fold of normal control group
- level of phosphorylated PI3K ([12]; 20 μM for 2 h): ~0.8 fold of normal control group
- activation of Akt (p-Akt) ([13]; 5 μM for 2 h): about 3.9 fold of normal control group
- activation of Akt (p-Akt) ([13]; 10 μM for 2 h): ~2.5 fold of normal control group
- activation of Akt (p-Akt) ([13]; 20 μM for 2 h): ~1.2 fold of normal control group
- brain histopathology (HE staining) ([3]; 2.5 mg·kg-1, day 4 p.i., comparable to acyclovir (10 mg·kg-1)): only had tiny hyperaemia
- brain histopathology (HE staining) ([3]; 5 mg·kg-1, day 4 p.i.): nearly had no hyperaemia and infiltration of inflammatory cells
- lung histopathology (HE staining) ([3]; 2.5 or 5 mg·kg-1, day 4 p.i.): intact columnar epithelium
- survival by day 14 post infection ([3]; 2.5 or 5 mg·kg-1 intraperitoneal once daily for five days): 100%
- body weight loss during the infection ([3]; 2.5 or 5 mg·kg-1 intraperitoneal once daily for five days, placebo up to 19%): less than 5%
- survival rates compared to placebo-treated control group ([3]; 2.5 or 5 mg·kg-1 intraperitoneal, p < 0.01): significantly increased survival rates
- pulmonary virus titers ([3]; myricetin 2.5 or 5 mg·kg-1 intraperitoneal, day 4 p.i., plaque assay, p < 0.05): significantly decreased
- virus titers in culture media [14]: significantly reduced the virus titers
- virus titers in culture media [15]: significantly reduced the virus titers
- number of plaques [16]: significantly reduced the number of plaques
- number of plaques [17]: significantly reduced the number of plaques
- syncytium formation [18]: markedly blocked syncytium formation
- expression of virus surface glycoproteins such as gD protein [19]: did not obviously influence the expression
- protection of gD protein from protease digestion [20]: obviously protected
- protection of gB, gC, and gH/gL proteins from protease digestion [21]: could not protect
- protection of HVEM and nectin-1 from protease digestion [22]: could also not be protected
- binding of gD to cell surface, pre-incubation of gD protein ([23]; 5, 10, 20, 40 μM, gD protein 2 μg/mL, dose-dependent): significantly reduced the binding of gD to cell surface
- amount of gD protein on cell surface, pretreatment of cells ([23]; 40, 20, 10, 5 μM for 1 h): did not significantly decrease the amount of gD protein on cell surface
- total expression levels of EGFR, PI3K and Akt proteins [24]: did not significantly influence the total expression levels
- activation of EGFR, PI3K and Akt proteins [25]: could not significantly influence the activation
- levels of phosphorylated EGFR, PI3K, and Akt proteins [26]: significantly reduced
- expression level of gD mRNA [27]: significantly reduced the expression level of gD mRNA
- expression level of gD mRNA [28]: significantly reduced the expression level of gD mRNA
- activity of HIV reverse transcriptase [29]: inhibited the activity of HIV reverse transcriptase
- inhibitory effects against HSV-1 [6]: moderate inhibitory effects
- inhibition of SARS-CoV helicase protein [30]: potently inhibited
- virus titers, pretreatment of virus [31, 35]: significantly reduced the virus titers
- virus titers, pretreatment of cells ([31]; 20 μM): did not significantly reduce virus titers
- virus multiplication, treatment after adsorption ([31]; 20 μM, p < 0.05): obvious inhibition on virus multiplication
- virus titers, pretreatment of virus [32, 35]: significantly reduced the virus titers
- virus titers, pretreatment of cells ([32]; 20 μM): did not significantly reduce virus titers
- virus multiplication, treatment after adsorption ([32]; 20 μM, p < 0.05): obvious inhibition on virus multiplication
- expression of ICP27 [33]: significantly reduced the expression of ICP27

SMILES: O=c1cc(-c2ccc(O)cc2)oc2cc(O)c(O)c(O)c12 [scutellarein, reference compound]
- inhibition of SARS-CoV helicase protein [30]: potently inhibited
